# Measured values from patent publication US20260097083A1, “METHOD FOR PRODUCING PANCREATIC ENDODERM CELLS” (Kyoto University, priority 2022, published 2026).
# Tests used:
# [1] = test system: pancreatic endoderm cells derived from human iPS cells; test: Expansion culture of pancreatic endoderm cells with Y-27632; type: cell-based
# Protocol: FIG. 4-A A schematic diagram illustrating expansion culture of pancreatic endoderm cells with Y-27632 (50 μM). NKX6.1-positive pancreatic endoderm cells were seeded on a plate and cultured in a culture medium containing Y-27632 (50 μM) for one week. After the elapse of one week, the cells were reseeded, and passage and expansion culture were repeated. PDX1^+/NKX6.1^+ pancreatic endoderm cells were produced from iPS cells (585A1 line) or ES cells (KhES-3 line) on a 6-well plate using the method by Toyoda et al. (Toyoda T, et al. Stem Cell Reports 2017). Briefly, the undifferentiated cells above were seeded at 1×10^6/well on a 6-well plate coated with iMatrix-511 silk. The cells were cultured in RPMI to which an S1 culture medium (1×B-27 Supplement, 100 U/ml penicillin/streptomycin, 100 ng/ml activin A, and CHIR99021 (Day 1: 3 μM, Days 2 and 3: 1 μM, and Day 4: 0 μM)) had been added for 4 days, in an S2 culture medium (improved MEM to which 0.5×B-27 Supplement, 100 U/ml penicillin/streptomycin, and 50 ng/ml KGF/FGF7 had been added) for 5 days, and in an S3 culture medium (improved MEM to which 0.5×B-27 Supplement, 100 U/ml penicillin/streptomycin, 50 ng/ml KGF/FGF7, 0.2 μM LDN-193189, 0.1 μM SANT-1, and 10 nM TTNPB had been added) for 2 days. The cells were detached from the 6-well plate using trypsin, and were reseeded on a 6-well plate coated with iMatrix-511 silk at 1.5×10^6/well using the S3 culture medium again. On the next day, the culture medium was changed to an S4 culture medium (improved MEM to which 0.5×B-27 Supplement, 100 U/ml penicillin/streptomycin, 100 ng/ml KGF/FGF7, 50 ng/ml EGF, 10 mM nicotinamide, and 50 μM Y-27632 had been added), and the cells were cultured for 4 days. (1) After the cells produced in clause 1 above were washed with PBS(−), 1 ml of 0.25% trypsin-EDTA was added thereto, and the cells were incubated at 37° C. and 5% CO2 for 5 minutes. (2) The adherent cells were detached through pipetting and were added to a 50-ml centrifuge tube. (3) 4 ml of DMEM (Dulbecco's Modified Eagle Medium)/10% FBS/PS (penicillin-streptomycin) was added to the centrifuge tube. (4) The resulting mixture was centrifuged at 400 G for 3 minutes, and the supernatant was removed. (5) The cells were suspended in improved MEM (containing 10 μM Y-27632, 0.5×B-27 Supplement, and 100 U/ml penicillin/streptomycin), and were counted. (6) When the cells were seeded on a 6-well plate, an amount of the suspension necessary to provide 1×10^6 cells/well was collected and was centrifuged at 400 G for 3 minutes (2×10^5 cells/well for a 24-well plate). (7) After the supernatant was removed, the cells were re-suspended in improved MEM (containing 100 ng/ml KGF, 50 ng/ml EGF, 10 mM nicotinamide, 50 μM Y-27632, 0.5×B-27 Supplement, and 100 U/ml penicillin/streptomycin), the suspension was adjusted to correspond to 2 ml/well, and then the cells were seeded. A 6-well plate to which the cells were to be seeded had been coated in advance by adding a solution formed by mixing 10 μl of iMatrix-511 silk and 1.5 ml of PBS(−) to each well 1 hour before seeding, and incubating the plate at 37° C. and 5% CO2 for 1 hour. (8) On the next day (Day 1), the cells were washed with improved MEM, and then the culture medium was changed to improved MEM (5 ml/well) containing 100 ng/ml KGF, 50 ng/ml EGF, 10 mM nicotinamide, 50 μM Y-27632, 0.5×B-27 Supplement, and 100 U/ml penicillin/streptomycin. (9) The cells were washed with improved MEM 3 days after that (on Day 4), and then the culture medium was changed to the same culture medium as that in the step (7) (5 ml/well). (10) The steps (1) to (7) above were conducted 3 days after that (on Day 7), and the next passage (expansion culture) was conducted. Expansion culture and passage culture were repeated by repeating the steps (8), (9), and (10) from the next day. One round of the passage (expansion culture) corresponded to 7 days (operations above). FIGS. 4-A show the outline of this procedure. […]
# [2] = test system: pancreatic endoderm cells; test: α-SMA immunostaining at the third passage of expansion culture; type: cell-based; details: Y-27632 50 μM vs non-administration, FIG. 6
# Protocol: FIG. 6 Images of pancreatic endoderm cells immunostained against α-SMA at the third passage of the pancreatic endoderm cells with or without the administration of Y-27632 (50 μM). The cells after the expansion culture were washed with PBS(−) twice, and were then fixed using 4% PFA at 4° C. for 20 minutes. The cells were blocked with a blocking solution (PBS(−) containing 5% donkey serum and 0.4% Triton X-100) at room temperature for 30 minutes. The cells were incubated in a primary antibody solution diluted with the blocking solution at 4° C. overnight. After the primary antibody solution was washed off, the cells were incubated at room temperature for 1 hour in a fluorescent secondary antibody solution diluted with the blocking solution. Fluorescently immunostained images were acquired using BZ-710 or BZ-800 (Keyence). A mechanism by which the expansion culture of pancreatic endoderm cells with Y-27632 was enabled was examined. It was shown that, at the third passage of the expansion culture, the number of α-SMA-positive cells increased in the Y-27632 non-administration group compared with the group to which Y-27632 at a concentration of 50 μM was administered (FIG. 6). That is to say, it was observed that fibrosis or epithelial-mesenchymal transition was suppressed by administering Y-27632 to the cells.
# [3] = 50 μM, flow cytometry, FIG. 4-E
# [4] = 50 μM, immunostaining after expansion culture, FIG. 4-D
smiles,measurement,setting,value
C[C@@H](N)[C@H]1CC[C@H](C(=O)Nc2ccncc2)CC1 [Y-27632],proliferative capacity of the pancreatic endoderm cells (Ki67-positive ratio),"[1]; 50 μM, during expansion culture, FIG. 4-F",maintained
same,Ki67-positive ratio,[1]; [3],kept
same,ratio of the pancreatic endoderm cells,[1]; [3],kept
same,expression of Ki67,[1]; [4],maintained
same,expression of PDX1 and NKX6.1,[1]; [4],maintained
same,total number of cells increased by a factor of,"[1]; Y-27632 50 μM, 60 days, FIG. 4-B",≥ 1×10^5
same,number of PDX1+/NKX6.1+ pancreatic endoderm cells increased by a factor of,"[1]; Y-27632 50 μM, 60 days, FIG. 4-C",≥ 1×10^5
same,NKX6.1-positive ratio on repeated expansion culture,[1]; culture medium for expansion culture with Y-27632,tended to gradually decrease
same,fibrosis or epithelial-mesenchymal transition (α-SMA-positive cells),[2],suppressed
